Calls of active or inactive are those of the source. The calls are words filed in the database; no cut-off is given here.
What was measured:
MCF7 = experiment: Cytotoxicity against human MCF7 cells at 10 uM after 48 hrs by sulforhodamine B assay relative to control; assay type: functional
IGROV-1 = experiment: Cytotoxicity against human IGROV1 cells at 10 uM after 48 hrs by sulforhodamine B assay relative to control; assay type: functional
Malme-3M = experiment: Cytotoxicity against human MALME-3M cells at 10 uM after 48 hrs by sulforhodamine B assay relative to control; assay type: functional
[1] = Cytotoxicity against human Hs 578T cells at 10 uM after 48 hrs by sulforhodamine B assay relative to control; assay type: functional
SNB-75 = experiment: Cytotoxicity against human SNB75 cells at 10 uM after 48 hrs by sulforhodamine B assay relative to control; assay type: functional
MDA-MB-435 = experiment: Cytotoxicity against human MDA-MB-435 cells at 10 uM after 48 hrs by sulforhodamine B assay relative to control; assay type: functional
CAKI-1 = experiment: Cytotoxicity against human CAKI-1 cells at 10 uM after 48 hrs by sulforhodamine B assay relative to control; assay type: functional
SF-539 = experiment: Cytotoxicity against human SF539 cells at 10 uM after 48 hrs by sulforhodamine B assay relative to control; assay type: functional
Homo sapiens = species: Homo sapiens; experiment: Inhibition of telomerase (unknown origin) at 10 uM TRAP assay
NCI-H460 = experiment: Cytotoxicity against human NCI-H460 cells at 10 uM after 48 hrs by sulforhodamine B assay relative to control; assay type: functional
COLO 205 = experiment: Cytotoxicity against human COLO205 cells at 10 uM after 48 hrs by sulforhodamine B assay relative to control; assay type: functional
UACC-257 = experiment: Cytotoxicity against human UACC257 cells at 10 uM after 48 hrs by sulforhodamine B assay relative to control; assay type: functional
OVCAR-5 = experiment: Cytotoxicity against human OVCAR5 cells at 10 uM after 48 hrs by sulforhodamine B assay relative to control; assay type: functional
HCT-116 = experiment: Cytotoxicity against human HCT116 cells at 10 uM after 48 hrs by sulforhodamine B assay relative to control; assay type: functional
OVCAR-3 = experiment: Cytotoxicity against human OVCAR3 cells at 10 uM after 48 hrs by sulforhodamine B assay relative to control; assay type: functional
OVCAR-8 = experiment: Cytotoxicity against human OVCAR8 cells at 10 uM after 48 hrs by sulforhodamine B assay relative to control; assay type: functional
HOP-62 = experiment: Cytotoxicity against human HOP62 cells at 10 uM after 48 hrs by sulforhodamine B assay relative to control; assay type: functional
HCC 2998 = experiment: Cytotoxicity against human HCC2998 cells at 10 uM after 48 hrs by sulforhodamine B assay relative to control; assay type: functional
MDA-MB-468 = experiment: Cytotoxicity against human MDA-MB-468 cells at 10 uM after 48 hrs by sulforhodamine B assay relative to control; assay type: functional
SR = experiment: Cytotoxicity against human SR cells at 10 uM after 48 hrs by sulforhodamine B assay relative to control; assay type: functional
786-0 = experiment: Cytotoxicity against human 786-0 cells at 10 uM after 48 hrs by sulforhodamine B assay relative to control; assay type: functional
NCI-H522 = experiment: Cytotoxicity against human NCI-H522 cells at 10 uM after 48 hrs by sulforhodamine B assay relative to control; assay type: functional
SW-620 = experiment: Cytotoxicity against human SW620 cells at 10 uM after 48 hrs by sulforhodamine B assay relative to control; assay type: functional
PC-3 [2] = experiment: Cytotoxicity against human PC3 cells after 48 hrs by sulforhodamine B assay; assay type: functional, cell-based; details: PC-3, 48 h
ACHN = experiment: Cytotoxicity against human ACHN cells at 10 uM after 48 hrs by sulforhodamine B assay relative to control; assay type: functional
TK-10 = experiment: Cytotoxicity against human TK10 cells at 10 uM after 48 hrs by sulforhodamine B assay relative to control; assay type: functional
OVCAR-4 = experiment: Cytotoxicity against human OVCAR4 cells at 10 uM after 48 hrs by sulforhodamine B assay relative to control; assay type: functional
HT-29 = experiment: Cytotoxicity against human HT-29 cells at 10 uM after 48 hrs by sulforhodamine B assay relative to control; assay type: functional
BT-549 = experiment: Cytotoxicity against human BT549 cells at 10 uM after 48 hrs by sulforhodamine B assay relative to control; assay type: functional
HL-60(TB) = experiment: Cytotoxicity against human HL-60(TB) cells at 10 uM after 48 hrs by sulforhodamine B assay relative to control; assay type: functional
SK-MEL-2 = experiment: Cytotoxicity against human SK-MEL-2 cells at 10 uM after 48 hrs by sulforhodamine B assay relative to control; assay type: functional
RXF 393 = experiment: Cytotoxicity against human RXF393 cells at 10 uM after 48 hrs by sulforhodamine B assay relative to control; assay type: functional
SN12C = experiment: Cytotoxicity against human SN12C cells at 10 uM after 48 hrs by sulforhodamine B assay relative to control; assay type: functional
NCI-H226 = experiment: Cytotoxicity against human NCI-H226 cells at 10 uM after 48 hrs by sulforhodamine B assay relative to control; assay type: functional
CCRF-CEM = experiment: Cytotoxicity against human CCRF-CEM cells at 10 uM after 48 hrs by sulforhodamine B assay relative to control; assay type: functional
SF-268 = experiment: Cytotoxicity against human SF268 cells at 10 uM after 48 hrs by sulforhodamine B assay relative to control; assay type: functional
KM12 = experiment: Cytotoxicity against human KM12 cells at 10 uM after 48 hrs by sulforhodamine B assay relative to control; assay type: functional
LOX IMVI = experiment: Cytotoxicity against human LOXIMVI cells at 10 uM after 48 hrs by sulforhodamine B assay relative to control; assay type: functional
SK-MEL-28 = experiment: Cytotoxicity against human SK-MEL-28 cells at 10 uM after 48 hrs by sulforhodamine B assay relative to control; assay type: functional
NCI-H23 = experiment: Cytotoxicity against human NCI-H23 cells at 10 uM after 48 hrs by sulforhodamine B assay relative to control; assay type: functional
PC-3 [3] = experiment: Cytotoxicity against human PC3 cells at 10 uM after 48 hrs by sulforhodamine B assay relative to control; assay type: functional
HCT-15 = experiment: Cytotoxicity against human HCT15 cells at 10 uM after 48 hrs by sulforhodamine B assay relative to control; assay type: functional
U-251 = experiment: Cytotoxicity against human U251 cells at 10 uM after 48 hrs by sulforhodamine B assay relative to control; assay type: functional
RPMI-8226 = experiment: Cytotoxicity against human RPMI8226 cells at 10 uM after 48 hrs by sulforhodamine B assay relative to control; assay type: functional
UO-31 = experiment: Cytotoxicity against human UO31 cells at 10 uM after 48 hrs by sulforhodamine B assay relative to control; assay type: functional
M14 = experiment: Cytotoxicity against human M14 cells at 10 uM after 48 hrs by sulforhodamine B assay relative to control; assay type: functional
[4] = Cytotoxicity against human EKVX cells at 10 uM after 48 hrs by sulforhodamine B assay relative to control; assay type: functional
SNB-19 = experiment: Cytotoxicity against human SNB19 cells at 10 uM after 48 hrs by sulforhodamine B assay relative to control; assay type: functional
T47D = experiment: Cytotoxicity against human T47D cells at 10 uM after 48 hrs by sulforhodamine B assay relative to control; assay type: functional
NCI-H322M = experiment: Cytotoxicity against human NCI-H322M cells at 10 uM after 48 hrs by sulforhodamine B assay relative to control; assay type: functional
DU-145 = experiment: Cytotoxicity against human DU145 cells at 10 uM after 48 hrs by sulforhodamine B assay relative to control; assay type: functional
NCI/ADR-RES = experiment: Cytotoxicity against human NCI/ADR-RES cells at 10 uM after 48 hrs by sulforhodamine B assay relative to control; assay type: functional
SF-295 = experiment: Cytotoxicity against human SF295 cells at 10 uM after 48 hrs by sulforhodamine B assay relative to control; assay type: functional
UACC-62 = experiment: Cytotoxicity against human UACC62 cells at 10 uM after 48 hrs by sulforhodamine B assay relative to control; assay type: functional
K562 = experiment: Cytotoxicity against human K562 cells at 10 uM after 48 hrs by sulforhodamine B assay relative to control; assay type: functional
MOLT-4 = experiment: Cytotoxicity against human MOLT4 cells at 10 uM after 48 hrs by sulforhodamine B assay relative to control; assay type: functional
MDA-MB-231 = experiment: Cytotoxicity against human MDA-MB-231 cells at 10 uM after 48 hrs by sulforhodamine B assay relative to control; assay type: functional
SK-MEL-5 = experiment: Cytotoxicity against human SK-MEL-5 cells at 10 uM after 48 hrs by sulforhodamine B assay relative to control; assay type: functional
A549 = experiment: Cytotoxicity against human A549 cells at 10 uM after 48 hrs by sulforhodamine B assay relative to control; assay type: functional

## CCCNCC(=O)Nc1ccc2c(c1)C(=O)c1cc(NC(=O)CNCCC)ccc1-2
MCF7
  Activity: 42.23%
IGROV-1
  Activity: 67.45%
Malme-3M
  Activity: 111.89%
[1]
  Activity: 109.04%
SNB-75
  Activity: 90.2%
MDA-MB-435
  Activity: 74.91%
CAKI-1
  Activity: 84.88%
SF-539
  Activity: 86.19%
Homo sapiens
  inhibition: inactive
NCI-H460
  Activity: 47.28%
COLO 205
  Activity: 53.11%
UACC-257
  Activity: 113.51%
OVCAR-5
  Activity: 115.75%
HCT-116
  Activity: 34.22%
OVCAR-3
  Activity: 101.73%
OVCAR-8
  Activity: 54.46%
HOP-62
  Activity: 70.78%
HCC 2998
  Activity: 75.34%
MDA-MB-468
  Activity: 60.47%
SR
  Activity: 26.93%
786-0
  Activity: 82.05%
NCI-H522
  Activity: 63.92%
SW-620
  Activity: 33.33%
PC-3 [2]
  IC50: 5.46 µM
ACHN
  Activity: 72.93%
TK-10
  Activity: 101.22%
OVCAR-4
  Activity: 65.9%
HT-29
  Activity: 7.11%
BT-549
  Activity: 97.53%
HL-60(TB)
  Activity: 78.59%
SK-MEL-2
  Activity: 114.94%
RXF 393
  Activity: 64.2%
SN12C
  Activity: 79.58%
NCI-H226
  Activity: 104.17%
CCRF-CEM
  Activity: 43.54%
SF-268
  Activity: 81.33%
KM12
  Activity: 65.12%
LOX IMVI
  Activity: 63.5%
SK-MEL-28
  Activity: 91.46%
NCI-H23
  Activity: 81.96%
PC-3 [3]
  Activity: 63.47%
HCT-15
  Activity: 82.71%
U-251
  Activity: 49.16%
RPMI-8226
  Activity: 62.56%
UO-31
  Activity: 59.44%
M14
  Activity: 84.8%
[4]
  Activity: 88.56%
SNB-19
  Activity: 96.69%
T47D
  Activity: 100.55%
NCI-H322M
  Activity: 55.32%
DU-145
  Activity: 68.94%
NCI/ADR-RES
  Activity: 90.61%
SF-295
  Activity: 78.31%
UACC-62
  Activity: 108.2%
K562
  Activity: 1.15%
MOLT-4
  Activity: 41.29%
MDA-MB-231
  Activity: 53.48%
SK-MEL-5
  Activity: 93.78%
A549
  Activity: 44.21%

## CCCSCC(=O)Nc1ccc2c(c1)C(=O)c1cc(NC(=O)CSCCC)ccc1-2
MCF7
  Activity: 92.24%
IGROV-1
  Activity: 103.61%
Malme-3M
  Activity: 107%
[1]
  Activity: 92.42%
SNB-75
  Activity: 88.25%
MDA-MB-435
  Activity: 102.08%
CAKI-1
  Activity: 116.5%
SF-539
  Activity: 77.18%
Homo sapiens
  inhibition: inactive
NCI-H460
  Activity: 110.9%
COLO 205
  Activity: 111.93%
UACC-257
  Activity: 137.38%
OVCAR-5
  Activity: 106.86%
HCT-116
  Activity: 97.47%
OVCAR-3
  Activity: 108.65%
OVCAR-8
  Activity: 122.23%
HOP-62
  Activity: 106.36%
HCC 2998
  Activity: 101.22%
MDA-MB-468
  Activity: 98.19%
SR
  Activity: 76.63%
786-0
  Activity: 88.03%
NCI-H522
  Activity: 80.15%
SW-620
  Activity: 117.49%
PC-3 [2]
  IC50: > 30 µM
ACHN
  Activity: 110.7%
TK-10
  Activity: 109.43%
OVCAR-4
  Activity: 106.85%
HT-29
  Activity: 93.31%
BT-549
  Activity: 79.13%
HL-60(TB)
  Activity: 99.03%
SK-MEL-2
  Activity: 106.67%
RXF 393
  Activity: 73.43%
SN12C
  Activity: 102.58%
NCI-H226
  Activity: 110.7%
CCRF-CEM
  Activity: 90.86%
SF-268
  Activity: 121.78%
KM12
  Activity: 90.34%
LOX IMVI
  Activity: 90.88%
SK-MEL-28
  Activity: 90.58%
NCI-H23
  Activity: 98.99%
PC-3 [3]
  Activity: 94.41%
HCT-15
  Activity: 86.05%
U-251
  Activity: 82.28%
RPMI-8226
  Activity: 45.12%
UO-31
  Activity: 104.91%
M14
  Activity: 99.86%
[4]
  Activity: 100.02%
SNB-19
  Activity: 102.55%
T47D
  Activity: 94.56%
NCI-H322M
  Activity: 84.33%
DU-145
  Activity: 111.27%
NCI/ADR-RES
  Activity: 100.59%
SF-295
  Activity: 69.6%
UACC-62
  Activity: 107.45%
K562
  Activity: 84.45%
MOLT-4
  Activity: 82.96%
MDA-MB-231
  Activity: 110.09%
SK-MEL-5
  Activity: 91.99%
A549
  Activity: 99.19%

Source: ChEMBL document CHEMBL2439971, “Design, synthesis and antiproliferative evaluation of fluorenone analogs with DNA topoisomerase I inhibitory properties” (Bioorg Med Chem, 2013)
